Measurements reported in US11339171B2, “MDM2 inhibitors” (Gan & Lee Pharmaceuticals, priority 2017, dated 2022).
pIC50: −log10 of the molar value.

Assays:
[1] = target: T1, MDM2 (Homo sapiens, UniProt Q00987); assay: Inhibition test of MDM2-P53 (GST-MDM2, Biotin-P53, Anti-GST-Tb, SA-XL665); type: binding
T1 construct: made in house
Outline: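 HTRF-type assay using 4 nM GST-MDM2 (final), Biotin-P53, SA-XL665 and anti-GST-Tb in PBS with 0.1% BSA, 5 mM DTT and 1 mM AEBSF. Compounds in 5-fold serial dilutions over twelve points; incubation 90 min at 25° C with shaking before plate-reader read-out.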

[2] = tested on: human osteosarcoma cell line SJSA-1; assay: Inhibition of proliferation of human osteosarcoma cell line SJSA-1 (DAPI staining, In Cell Analyzer); settings: Homo sapiens, SJSA-1, 72 h, read-out: IC50 (nM), inhibitory activity on proliferation of human osteosarcoma cell line SJSA-1, SJSA-1, incubated 72 h
Protocol: 2.2 Experiment Preparation:
2.2.1 Preparation of a culture medium for human osteosarcoma cell line SJSA-1: RPMI1640+10% FBS+1% penicillin/streptomycin
2.2.2 Preparation of a test compound solution:
a. the test compound solution with a certain concentration was taken, and diluted with the culture medium to obtain a compound solution with a final concentration of 20 μM;
b. 200 μL of a culture medium containing 0.2% DMSO (dimethyl sulfoxide) was added into H2-H10 of a 96-well plate; 300 μl of the above solution was added into H1; and
c. 100 μL was taken out from well H1, added into H2, and mixed well; then 100 μl of the resultant solution was taken and added into H3, and dilution was carried out in sequence until H9 to obtain the 3-fold serial dilution of the test compound.
2.3 Experimental Process:
2.3.1 SJSA-1 cells were inoculated into a 96-well cell plate with black transparent bottom at 4000 cells/100 μl/well, and cultured overnight at 37° C.;
2.3.3 Fixation: the cell plate was taken out, the culture medium was removed, and 50 μL of 4% paraformaldehyde solution was added to each well to fix for 10 min;
2.3.4 50 μl of 0.1 M glycine was added to neutralize for 10 min;
2.3.5 Washing was performed with 1×PBS (phosphate buffer solution pH7.2) twice;
2.3.6 Permeabilization: 50 μL of 0.2% TritonX-100 (Triton) was added per well, and permeabilization was carried out at room temperature for 10 min;
2.3.7 Washing was performed with 1×PBS (phosphate buffer solution pH7.2) twice;
2.3.9 Washing was performed with 1×PBS (phosphate buffer solution pH7.2) for three times; and
2.3.10 Scanning and analysis were performed by In cell analyzer.
The inhibition rate of each compound at each concentration point was calculated according to the following formula, and curve fitting was performed by GraphPad Prism 6.0 software to obtain the IC50 value.

T1 sequence (Q00987 whole entry): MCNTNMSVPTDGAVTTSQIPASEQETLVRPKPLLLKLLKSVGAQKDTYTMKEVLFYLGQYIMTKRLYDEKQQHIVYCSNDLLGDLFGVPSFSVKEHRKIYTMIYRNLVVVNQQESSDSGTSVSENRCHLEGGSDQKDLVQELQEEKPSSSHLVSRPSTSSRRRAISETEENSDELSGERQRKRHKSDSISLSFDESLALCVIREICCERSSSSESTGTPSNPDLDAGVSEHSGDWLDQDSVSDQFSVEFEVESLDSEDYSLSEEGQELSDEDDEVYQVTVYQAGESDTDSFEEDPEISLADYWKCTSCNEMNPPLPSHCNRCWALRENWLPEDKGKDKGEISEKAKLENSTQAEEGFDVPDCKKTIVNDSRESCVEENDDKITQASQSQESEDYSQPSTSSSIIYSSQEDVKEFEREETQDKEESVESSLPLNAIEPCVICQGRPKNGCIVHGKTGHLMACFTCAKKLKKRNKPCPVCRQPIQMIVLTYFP

| SMILES | pIC50 [1] | IC50 [2] [nM] |
| --- | --- | --- |
| COc1cc(F)ccc1-c1nc2c(n1C(C)C)[C@@]1(C(=O)Nc3cc(Cl)ccc31)N(c1cc(Cl)ccc1C)C2=O [Example S-4, (S)-6-chloro-5′-(5-chloro-2-methylphenyl)-2′-(4-fluoro-2-methoxyphenyl)-3′-isopropyl-3′H-spiro[dihydroindole-3,4′-pyrrolo[3,4-d]imidazole]-2,6′(5′H)-dione] | 8.47 | 7.92 |
| COc1ccccc1-c1nc2c(n1C(C)C)[C@@]1(C(=O)Nc3cc(Cl)ccc31)N(c1cc(Cl)ccc1C)C2=O [Example S-5, (S)-6-chloro-5′-(5-chloro-2-methylphenyl)-3′-isopropyl-2′-(2-methoxyphenyl)-3′H-spiro[dihydroindole-3,4′-pyrrolo[3,4-d]imidazole]-2,6′(5′H)-dione] | 8.49 | 25.4 |
| CCc1ccccc1-c1nc2c(n1C(C)C)[C@@]1(C(=O)Nc3cc(Cl)ccc31)N(c1cc(Cl)ccc1C)C2=O [Example S-7, (S)-6-chloro-5′-(5-chloro-2-methylphenyl)-2′-(2-ethylphenyl)-3′-isopropylisopropyl-3′H-spiro[dihydroindole-3,4′-pyrrolo[3,4-d]imidazole]-2,6′(5′H)-dione] | 7.14 | 1270 |
| COc1ccc(-c2nc3c(n2C(C)C)[C@@]2(C(=O)Nc4cc(Cl)ccc42)N(c2cc(Cl)ccc2C)C3=O)c(OC)n1 [Example S-8, (S)-6-chloro-5′-(5-chloro-2-methylphenyl)-2′-(2,6-dimethoxypyridin-3-yl)-3′-isopropyl-3′H-spiro[dihydroindole-3,4′-pyrrolo[3,4-d]imidazole]-2,6′(5′H)-dione] | 8.48 | 10.3 |
| COc1cnccc1-c1nc2c(n1C(C)C)[C@@]1(C(=O)Nc3cc(Cl)ccc31)N(c1cc(Cl)ccc1C)C2=O [Example S-10, (S)-6-chloro-5′-(5-chloro-2-methylphenyl)-3′-isopropyl-2′-(3-methoxypyridin-4-yl)-3′H-spiro[dihydroindole-3,4′-pyrrolo[3,4-d]imidazole]-2,6′(5′H)-dione] | 8.56 | 124 |
| COc1cc(C#N)ccc1-c1nc2c(n1C(C)C)[C@@]1(C(=O)Nc3cc(Cl)ccc31)N(c1cc(Cl)ccc1C)C2=O [Example S-12, (S)-4-(6-chloro-5′-(5-chloro-2-methylphenyl)-3′-isopropyl-2,6′-dioxo-5′,6′-dihydro-3′H-spiro[dihydroindole-3,4′-pyrrolo[3,4-d]imidazole]-2′-yl)-3-methoxybenzonitrile] | 8.45 | 5.27 |
| COc1ccc(C#N)cc1-c1nc2c(n1C(C)C)[C@@]1(C(=O)Nc3cc(Cl)ccc31)N(c1cc(Cl)ccc1C)C2=O [Example S-13, (S)-3-(6-chloro-5′-(5-chloro-2-methylphenyl)-3′-isopropyl-2,6′-dioxo-5′,6′-dihydro-3′H-spiro[dihydroindole-3,4′-pyrrolo[3,4-d]imidazole]-2′-yl)-4-methoxybenzonitrile] | 8.59 | 5.95 |
| CCc1ccc(Cl)cc1N1C(=O)c2nc(-c3cnc(OC)nc3OC)n(C(C)C)c2[C@@]12C(=O)Nc1cc(Cl)ccc12 [Example S-15, (S)-6-chloro-5′-(5-chloro-2-ethylphenyl)-2′-(2,4-dimethoxypyrimidin-5-yl)-3′-isopropyl-3′H-spiro[dihydroindole-3,4′-pyrrolo[3,4-d]imidazole]-2,6′(5′H)-dione] | 8.79 | 10.9 |
| COc1ncc(-c2nc3c(n2C(C)C)[C@@]2(C(=O)Nc4cc(Cl)ccc42)N(c2cc(Cl)cn(C)c2=O)C3=O)c(OC)n1 [Example S-16, (S)-6-chloro-5′-(5-chloro-1-methyl-2-oxo-1,2-dihydropyridin-3-yl)-2′-(2,4-dimethoxypyrimidin-5-yl)-3′-isopropyl-3′H-spiro[dihydroindole-3,4′-pyrrolo[3,4-d]imidazole]-2,6′(5′H)-dione] | 8.47 | 3560 |
| COc1ncc(-c2nc3c(n2C(C)C)[C@@]2(C(=O)Nc4cc(Cl)ccc42)N(c2cc(Cl)ccc2OC)C3=O)c(OC)n1 [Example S-17, (S)-6-chloro-5′-(5-chloro-2-methoxyphenyl)-2′-(2,4-dimethoxypyrimidin-5-yl)-3′-isopropyl-3′H-spiro[dihydroindole-3,4′-pyrrolo[3,4-d]imidazole]-2,6′(5′H)-dione] | 8.43 | 201 |
| COc1ccncc1-c1nc2c(n1C(C)C)[C@@]1(C(=O)Nc3cc(Cl)ccc31)N(c1cc(Cl)ccc1C)C2=O [Example S-18, (S)-6-chloro-5′-(5-chloro-2-methylphenyl)-3′-isopropyl-2′-(4-methoxypyridin-3-yl)-3′H-spiro[dihydroindole-3,4′-pyrrolo[3,4-d]imidazole]-2,6′(5′H)-dione] | 8.84 | 13.9 |
| COc1ccc(C(C)C)c(-c2nc3c(n2C(C)C)[C@@]2(C(=O)Nc4cc(Cl)ccc42)N(c2cc(Cl)ccc2C)C3=O)c1 [Example S-19, (S)-6-chloro-5′-(5-chloro-2-methylphenyl)-3′-isopropyl-2′-(2-isopropyl-5-methoxyphenyl)-3′H-spiro[dihydroindole-3,4′-pyrrolo[3,4-d]imidazole]-2,6′(5′H)-dione] | 7.46 | 352 |
| COc1ncc(-c2nc3c(n2C(C)C)[C@@]2(C(=O)Nc4cc(Cl)ccc42)N(c2ccc(C)c(Cl)c2)C3=O)c(OC)n1 [Example S-20, (S)-6-chloro-5′-(3-chloro-4-methylphenyl)-2′-(2,4-dimethoxypyrimidin-5-yl)-3′-isopropyl-3′H-spiro[dihydroindole-3,4′-pyrrolo[3,4-d]imidazole]-2,6′(5′H)-dione] | 8.36 | 48.1 |
| CNC(=O)c1ccc(OC)c(-c2nc3c(n2C(C)C)[C@@]2(C(=O)Nc4cc(Cl)ccc42)N(c2cc(Cl)ccc2C)C3=O)c1 [Example S-21, (S)-3-(6-chloro-5′-(5-chloro-2-methylphenyl)-3′-isopropyl-2,6′-dioxo-5′,6′-dihydro-3′H-spiro[dihydroindole-3,4′-pyrrolo[3,4-d]imidazole]-2′-yl)-4-methoxy-N-methylbenzamide] | 8.87 | 62.2 |
| COc1ccc(C(=O)N(C)C)cc1-c1nc2c(n1C(C)C)[C@@]1(C(=O)Nc3cc(Cl)ccc31)N(c1cc(Cl)ccc1C)C2=O [Example S-22, (S)-3-(6-chloro-5′-(5-chloro-2-methylphenyl)-3′-isopropyl-2,6′-dioxo-5′,6′-dihydro-3′H-spiro[dihydroindole-3,4′-pyrrolo[3,4-d]imidazole]-2′-yl)-4-methoxy-N,N-dimethylbenzamide] | 8.96 | 7.46 |
| COc1cc(C)ccc1-c1nc2c(n1C(C)C)[C@@]1(C(=O)Nc3cc(Cl)ccc31)N(c1cc(Cl)ccc1C)C2=O [Example S-24, (S)-6-chloro-5′-(5-chloro-2-methylphenyl)-3′-isopropyl-2′-(2-methoxy-4-methylphenyl)-3′H-spiro[dihydroindole-3,4′-pyrrolo[3,4-d]imidazole]-2,6′(5′H)-dione] | 8.36 | 4.17 |
| CNc1ccc(-c2nc3c(n2C(C)C)[C@@]2(C(=O)Nc4cc(Cl)ccc42)N(c2cc(Cl)ccc2C)C3=O)c(OC)c1 [Example S-25, (S)-6-chloro-5′-(5-chloro-2-methylphenyl)-3′-isopropyl-2′-(2-methoxy-4-(methylamine)phenyl)-3′H-spiro[dihydroindole-3,4′-pyrrolo[3,4-d]imidazole]-2,6′(5′H)-dione] | 8.60 | 8.83 |
| CCn1c(-c2cnc(OC)nc2OC)nc2c1[C@@]1(C(=O)Nc3cc(Cl)ccc31)N(c1cc(Cl)ccc1C)C2=O [Example S-26, (S)-6-chloro-5′-(5-chloro-2-methylphenyl)-2′-(2,4-dimethoxypyrimidin-5-yl)-3′-ethyl-3′H-spiro[dihydroindole-3,4′-pyrrolo[3,4-d]imidazole]-2,6′(5′H)-dione] | 8.63 | 22.2 |
| COc1ncncc1-c1nc2c(n1C(C)C)[C@@]1(C(=O)Nc3cc(Cl)ccc31)N(c1cc(Cl)ccc1C)C2=O [Example S-27, (S)-6-chloro-5′-(5-chloro-2-methylphenyl)-3′-isopropyl-2′-(4-methoxypyrimidin-5-yl)-3′H-spiro[dihydroindole-3,4′-pyrrolo[3,4-d]imidazole]-2,6′(5′H)-dione] | 8.46 | 119 |
| COc1ncc(-c2nc3c(n2C2CC2)[C@@]2(C(=O)Nc4cc(Cl)ccc42)N(c2cc(Cl)ccc2C)C3=O)c(OC)n1 [Example S-28, (S)-6-chloro-5′-(5-chloro-2-methylphenyl)-3′-cyclopropane-2′-(2,4-dimethoxypyrimidin-5-yl)-3′H-spiro[dihydroindole-3,4′-pyrrolo[3,4-d]imidazole]-2,6′(5′H)-dione] | 7.27 | 1290 |
| COc1ccc(C(N)=O)cc1-c1nc2c(n1C(C)C)[C@@]1(C(=O)Nc3cc(Cl)ccc31)N(c1cc(Cl)ccc1C)C2=O [Example S-29, (S)-3-(6-chloro-5′-(5-chloro-2-methylphenyl)-3′-isopropyl-2,6′-dioxo-5′,6′-dihydro-3′H-spiro[dihydroindole-3,4′-pyrrolo[3,4-d]imidazole]-2′-yl)-4-methoxybenzamide] | 9.00 | 196 |
| Cc1ccc(Cl)cc1N1C(=O)c2nc(-c3ccccc3OC(F)F)n(C(C)C)c2[C@@]12C(=O)Nc1cc(Cl)ccc12 [Example S-30, (S)-6-chloro-5′-(5-chloro-2-methylphenyl)-2′-(2-(difluoromethoxy)phenyl)-3′-isopropyl-3′H-spiro[dihydroindole-3,4′-pyrrolo[3,4-d]imidazole]-2,6′(5′H)-dione] | 8.48 | 58.1 |
